Assays:
bedstraw = assay: Test B pre/postemergence bedstraw; type: in vivo, Galium aparine
In short: (§1)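 Response is a visual 0-to-10 score relative to untreated plants, where 0 means no effect and 10 means complete control, taken twelve to sixteen days after application. Treatments went onto soil at planting and onto foliage of 1- to 4-leaf plants, using a surfactant-containing non-phytotoxic solvent.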

blackgrass = assay: Test B pre/postemergence blackgrass; type: in vivo, Alopecurus myosuroides
In short: as §1

surinam grass = assay: Test B pre/postemergence surinam grass; type: in vivo, Brachiaria decumbens
In short: as §1

cocklebur = assay: Test B pre/postemergence cocklebur; type: in vivo, Xanthium strumarium
In short: as §1

corn = assay: Test B pre/postemergence corn; type: in vivo, Zea mays
In short: as §1

crabgrass = assay: Test B pre/postemergence crabgrass; type: in vivo, Digitaria sanguinalis
In short: as §1

giant foxtail = assay: Test B pre/postemergence giant foxtail; type: in vivo, Setaria faberii
In short: as §1

morningglory = assay: Test B pre/postemergence morningglory; type: in vivo, Ipomoea hederacea
In short: as §1

pigweed = assay: Test B pre/postemergence pigweed; type: in vivo, Amaranthus retroflexus
In short: as §1

rape = assay: Test B pre/postemergence rape; type: in vivo, Brassica napus
In short: as §1

soybean = assay: Test B pre/postemergence soybean; type: in vivo, Glycine max
In short: as §1

velvetleaf = assay: Test B pre/postemergence velvetleaf; type: in vivo, Abutilon theophrasti
In short: as §1

wheat = assay: Test B pre/postemergence wheat; type: in vivo, Triticum aestivum
In short: as §1

wild oat = assay: Test B pre/postemergence wild oat; type: in vivo, Avena fatua
In short: as §1

purple nutsedge = assay: Test B pre/postemergence purple nutsedge; type: in vivo, Cyperus rotundus
In short: as §1

[1] = Preemergence, Rate 62 g/ha, scale of 0 to 10 where 0 is no effect and 10 is complete control
[2] = Preemergence, Rate 125 g/ha, 0 is no effect, 10 is complete control
[3] = Preemergence, Rate 250 g/ha, scale 0 to 10, 0 is no effect, 10 is complete control
[4] = Preemergence, Rate 500 g/ha, scale 0 to 10 (0 no effect, 10 complete control)
[5] = Rate 62 g/ha, Postemergence, scale of 0 to 10 where 0 is no effect and 10 is complete control
[6] = Rate 125 g/ha, Postemergence, scale 0 to 10
[7] = Rate 500 g/ha, Postemergence, scale 0 to 10

## Cc1ccccc1-n1c(=O)on(C(=O)N(c2ccc(Cl)cc2Cl)C(C)C)c1=O [Compound 185]
bedstraw; [1]
  Bedstraw plant response rating: 0
bedstraw; [2]
  Bedstraw plant response rating (0 to 10 scale): 0
bedstraw; [3]
  Bedstraw plant response rating: 0
bedstraw; [4]
  Bedstraw plant response rating: 0
bedstraw; [5]
  Bedstraw plant response rating: 0
bedstraw; [6]
  Bedstraw plant response rating: 0
bedstraw; Rate 250 g/ha, Postemergence
  Plant response rating (0 to 10; 0 is no effect, 10 is complete control), Bedstraw: 3
bedstraw; [7]
  Bedstraw plant response rating: 3
blackgrass; [1]
  Blackgrass plant response rating: 0
blackgrass; [2]
  Blackgrass plant response rating (0 to 10 scale): 0
blackgrass; [3]
  Blackgrass plant response rating: 0
blackgrass; [4]
  Blackgrass plant response rating: 0
blackgrass; [5]
  Blackgrass plant response rating: 0
blackgrass; [6]
  Blackgrass plant response rating: 0
blackgrass; Rate 250 g/ha, Postemergence
  Plant response rating (0 to 10; 0 is no effect, 10 is complete control), Blackgrass: 0
blackgrass; [7]
  Blackgrass plant response rating: 0
Surinam grass; [1]
  B. signalgrass plant response rating: 0
Surinam grass; [2]
  B. signalgrass plant response rating (0 to 10 scale): 0
Surinam grass; [3]
  B. signalgrass plant response rating: 0
Surinam grass; [4]
  B. signalgrass plant response rating: 0
Surinam grass; [5]
  B. signalgrass plant response rating: 0
Surinam grass; Rate 125 g/ha, Postemergence, scale 0 (no effect) to 10 (complete control)
  B. signalgrass plant response rating: 0
Surinam grass; Rate 250 g/ha, Postemergence, scale 0 to 10, 0 is no effect, 10 is complete control
  Plant response rating, B. signalgrass: 0
Surinam grass; Rate 500 g/ha, Postemergence, scale 0 to 10, 0 no effect, 10 complete control
  B. signalgrass plant response rating: 0
cocklebur; [2]
  Cocklebur plant response rating (0 to 10 scale): 0
cocklebur; [3]
  Cocklebur plant response rating: 0
cocklebur; [5]
  Cocklebur plant response rating: 0
cocklebur; [6]
  Cocklebur plant response rating: 0
cocklebur; Rate 250 g/ha, Postemergence
  Plant response rating (0 to 10; 0 is no effect, 10 is complete control), Cocklebur: 0
cocklebur; [7]
  Cocklebur plant response rating: 2
corn; [1]
  Corn plant response rating: 0
corn; [2]
  Corn plant response rating (0 to 10 scale): 0
corn; [3]
  Corn plant response rating: 0
corn; [4]
  Corn plant response rating: 0
corn; [5]
  Corn plant response rating: 0
corn; [6]
  Corn plant response rating: 0
corn; Rate 250 g/ha, Postemergence
  Plant response rating (0 to 10; 0 is no effect, 10 is complete control), Corn: 0
corn; [7]
  Corn plant response rating: 0
crabgrass; [1]
  Crabgrass plant response rating: 2
crabgrass; [2]
  Crabgrass plant response rating (0 to 10 scale): 6
crabgrass; [3]
  Crabgrass plant response rating: 7
crabgrass; [4]
  Crabgrass plant response rating: 9
crabgrass; [5]
  Crabgrass plant response rating: 0
crabgrass; [6]
  Crabgrass plant response rating: 1
crabgrass; [7]
  Crabgrass plant response rating: 1
Giant foxtail; [1]
  Giant foxtail plant response rating: 0
Giant foxtail; [2]
  Giant foxtail plant response rating (0 to 10 scale): 5
Giant foxtail; [3]
  Giant foxtail plant response rating: 9
Giant foxtail; [4]
  Giant foxtail plant response rating: 9
Giant foxtail; [5]
  Giant foxtail plant response rating: 0
Giant foxtail; [6]
  Giant foxtail plant response rating: 0
Giant foxtail; Rate 250 g/ha, Postemergence
  Plant response rating (0 to 10; 0 is no effect, 10 is complete control), Giant foxtail: 0
Giant foxtail; [7]
  Giant foxtail plant response rating: 1
morningglory; [1]
  Morningglory plant response rating: 0
morningglory; [2]
  Morningglory plant response rating (0 to 10 scale): 0
morningglory; [3]
  Morningglory plant response rating: 0
morningglory; [4]
  Morningglory plant response rating: 0
morningglory; [5]
  Morningglory plant response rating: 1
morningglory; [6]
  Morningglory plant response rating: 1
morningglory; Rate 250 g/ha, Postemergence
  Plant response rating (0 to 10; 0 is no effect, 10 is complete control), Morningglory: 1
morningglory; [7]
  Morningglory plant response rating: 2
pigweed; [1]
  Redroot pigweed plant response rating: 0
pigweed; [2]
  Redroot pigweed plant response rating (0 to 10 scale): 0
pigweed; [3]
  Redroot pigweed plant response rating: 0
pigweed; [4]
  Redroot pigweed plant response rating: 0
pigweed; [5]
  Redroot pigweed plant response rating: 0
pigweed; [6]
  Redroot pigweed plant response rating: 1
pigweed; Rate 250 g/ha, Postemergence
  Plant response rating (0 to 10; 0 is no effect, 10 is complete control), Redroot pigweed: 3
pigweed; [7]
  Redroot pigweed plant response rating: 4
rape; [1]
  Rape plant response rating: 0
rape; [2]
  Rape plant response rating (0 to 10 scale): 0
rape; [3]
  Rape plant response rating: 0
rape; [4]
  Rape plant response rating: 0
rape; [5]
  Rape plant response rating: 0
rape; [6]
  Rape plant response rating: 0
rape; Rate 250 g/ha, Postemergence
  Plant response rating (0 to 10; 0 is no effect, 10 is complete control), Rape: 0
rape; [7]
  Rape plant response rating: 0
soybean; [1]
  Soybean plant response rating: 0
soybean; [2]
  Soybean plant response rating (0 to 10 scale): 0
soybean; [3]
  Soybean plant response rating: 0
soybean; [4]
  Soybean plant response rating: 0
soybean; [5]
  Soybean plant response rating: 2
soybean; [6]
  Soybean plant response rating: 2
soybean; Rate 250 g/ha, Postemergence
  Plant response rating (0 to 10; 0 is no effect, 10 is complete control), Soybean: 3
soybean; [7]
  Soybean plant response rating: 3
velvetleaf; [1]
  Velvetleaf plant response rating: 0
velvetleaf; [3]
  Velvetleaf plant response rating: 0
velvetleaf; [4]
  Velvetleaf plant response rating: 0
velvetleaf; [6]
  Velvetleaf plant response rating: 0
velvetleaf; Rate 250 g/ha, Postemergence
  Plant response rating (0 to 10; 0 is no effect, 10 is complete control), Velvetleaf: 0
wheat; [1]
  Wheat plant response rating: 0
wheat; [3]
  Wheat plant response rating: 0
wheat; [4]
  Wheat plant response rating: 0
wheat; [6]
  Wheat plant response rating: 0
wheat; Rate 250 g/ha, Postemergence
  Plant response rating (0 to 10; 0 is no effect, 10 is complete control), Wheat: 0
Wild oat; [1]
  Wild oats plant response rating: 0
Wild oat; [3]
  Wild oats plant response rating: 0
Wild oat; [4]
  Wild oats plant response rating: 0
Wild oat; [6]
  Wild oats plant response rating: 0
Wild oat; Rate 250 g/ha, Postemergence
  Plant response rating (0 to 10; 0 is no effect, 10 is complete control), Wild oats: 0
Purple nutsedge; [3]
  Nutsedge plant response rating: 0
Purple nutsedge; [4]
  Nutsedge plant response rating: 0
Purple nutsedge; [5]
  Nutsedge plant response rating: 0
Purple nutsedge; [6]
  Nutsedge plant response rating: 0
Purple nutsedge; Rate 250 g/ha, Postemergence
  Plant response rating (0 to 10; 0 is no effect, 10 is complete control), Nutsedge: 0
Purple nutsedge; [7]
  Nutsedge plant response rating: 0

— US6737383B1, “Herbicidal oxadiazolidines” (priority 1999, dated 2004)
